Laboratory results taken from patent publication US20030013643A1, “Prevention and treatment of streptococcal and staphylococcal infection” (priority 2000, published 2003).

Experiments:
[1] = system: wild-type GAS, strain 950771; experiment: GAS translocation through polarized human keratinocyte monolayers; format: cell-based, Streptococcus pyogenes; conditions: for blocking of translocating GAS: pre-treated 30 minutes with 2 mg/ml, compared to untreated monolayers
Procedure: Human keratinocytes were cultured on 3.0 μm filters to allow polarization and establishment of functional intercellular tight junctions. Cells were infected as described previously with wild-type GAS, strain 950771. To assess the ability of exogenously added HA to inhibit the translocation of GAS through the keratinocyte monolayer, cells were pre-treated for 30 minutes with either 2 mg/ml of hyaluronic acid (HA) or another acidic polysaccharide, alginate (AL), at the same concentration. Aliquots of media from the lower chamber of infected keratinocyte monolayers were cultured on blood agar plates at 1 and 2 hours after inoculation with bacteria to assess the number of translocating bacteria. […] In contrast only 20% and 25% of the wild-type bacteria were blocked by AL at 1 and 2 hours, respectively.
(§1) GAS strains were 950771, an M-type 3 strain originally isolated from a child with necrotizing fasciitis, and 188, an isogenic acapsular mutant derived from 950771 (Ashbaugh, C. D., et al., (1998) J. Clin. Invest. 102, 550-560). Bacteria were cultured in Todd Hewitt broth (Difco, Sparks, Md.) to early exponential phase. For preparation of polarized keratinocyte monolayers, human squamous cell carcinoma cell line, SCC13, derived from cheek epidermis (Cline, P. R. & Rice, R. H. (1983) Cancer Res. 43, 3203-3207) was cultured to confluence in serum-free keratinocyte medium (Gibco BRL, Rockville, Md.) supplemented with 50 μg/ml bovine pituitary extract, 0.1 ng/ml epidermal growth factor and 0.3 mM calcium chloride (c-SFM). Certain experiments were performed also using cell monolayers prepared from OKP7 primary human keratinocytes (Crowe et al. (1991) Differentiation 48, 199-208). Keratinocytes were seeded at 5×10^5 cells per well onto polycarbonate Transwell membrane supports (12-well plates, 3.0 μm pore size; Costar, Corning, N.Y.) and cultured for 6-10 days at 37° C. with 5% CO2 in c-SFM, with daily medium changes. Once confluent, the integrity of the monolayer was assessed routinely by measuring permeability to sodium fluorescein (Tchao, R. (1988) Alternative Methods in Toxicology (eds. Goldberg, A. M.) 271-283 (Ann Liebert, N.Y.) and, in some experiments, by measuring transepithelial electrical resistance (McNamara, B. P., et al. (2001) J Clin Invest 107, 621-9).
Keratinocyte monolayers on Transwells were inoculated with GAS at a multiplicity of infection of 10 per keratinocyte. Monolayers were incubated at 37° C. with 5% CO2. The keratinocyte medium in the upper chamber was replaced two hours after adding GAS, and the Transwell inserts containing the keratinocytes were moved to new wells containing fresh medium every 2 hours to prevent overgrowth of translocated bacteria. Translocation was assessed by quantitative cultures of medium from the lower chamber at 2 hour intervals.
As a model of the movement of GAS from the pharyngeal mucosa or skin surface into underlying tissue, GAS translocation was studied in vitro through keratinocyte monolayers. Two hours after inoculation onto the surface of a confluent keratinocyte monolayer, wild-type GAS was detected in the culture medium below the membrane support, indicating migration of the organisms through the monolayer. At each of several intervals after inoculation, approximately 20 to 100 times as many GAS were recovered below monolayers inoculated with wild-type GAS compared to those inoculated with the acapsular mutant strain.(Figure 12a). […] Compared to wild-type GAS strain 950771, the efficiency of translocation was similar for wild-type GAS strains 87-282, a highly encapsulated M-type 18 strain, and for DLS003, a poorly encapsulated M-type 3 strain. Translocation of wild-type GAS was reduced by 78% at 1 hour in experiments in which the keratinocyte monolayers were pretreated with monoclonal antibody IM7.8.1 to block interaction of the GAS capsule with CD44 . […]

human keratinocytes [2] = experiment: Immunofluorescent staining of ZO-1 and E-cadherin at intercellular junctions of keratinocytes exposed to GAS; format: cell-based; conditions: pretreatment of keratinocytes; wild-type GAS
Procedure: Keratinocyte monolayers were fixed with 4% paraformaldehyde in phosphate buffered saline (PBS), washed, permeabilized with 0.1% Triton X-100 in PBS, then incubated with 0.5% bovine serum albumin in PBS to block non-specific binding sites prior to antibody staining. Primary antibodies included rabbit IgG antibody to GAS group A carbohydrate (ImmuCell, Portland, Me.) at 5 μg/ml, rat monoclonal anti-mouse CD44 (clone IM7.8. 1) (Schrager, H. M., et al., (1998) J. Clin. Invest. 101, 1708-1716) at 15 μg/ml, goat IgG anti-ezrin at 2 μg/ml (Santa Cruz Biotechnology, Santa Cruz, Calif.), goat IgG anti-Rac1 at 2 μg/ml (Santa Cruz Biotechnology), mouse anti-phosphotyrosine at 2 μg/ml (PY-Plus, Zymed Laboratories, Inc., San Francisco, Calif.), rabbit anti-ZO-1 at 2 μg/ml (Zymed), goat anti-E-cadherin at 2 μg/ml (Santa Cruz Biotechnology), and mouse anti-myc monoclonal antibody 9E10 (Santa Cruz Biotechnology). Secondary antibodies included, as appropriate, Texas red- or Alexa 660-conjugated anti-rabbit IgG (Molecular Probes, Eugene, Oreg.), Alexa 568-conjugated anti-rabbit, anti-goat, or anti-rat IgG (Molecular Probes), and FITC-conjugated anti-goat or anti-mouse IgG (Sigma), each diluted 1:250 in 0.5% BSA/PBS. Cellular actin was labeled with 165 nm phalloidin conjugated to Oregon green 514 or to Alexa 488 (Molecular Probes). […]

human keratinocytes [3] = experiment: Confocal microscopy of actin projections / lamellipodia in keratinocytes exposed to wild-type GAS; format: cell-based; conditions: incubation of keratinocytes with inhibitor
Procedure: as §1, with “Keratinocytes were seeded at 5×10^5 cells per well onto polycarbonate Transwell membrane supports (12-well plates, 3.0 μm pore size; Costar, Corning, N.Y.) and cultured for 6-10 days at 37° C. with 5% CO2 in c-SFM, with daily medium changes.” left out, “621-9). […]” for “621-9).”

GAS [4] = experiment: GAS translocation through abraded human skin equivalent; format: cell-based, Streptococcus pyogenes; conditions: pre-treated at 2 mg/ml for 1 hour; 4 hour infection period
Procedure: To examine GAS translocation in a model system similar to normal human skin, we utilized pseudo-organ cultures of human skin equivalent. This material is made by constructing a “dermis” that consists of human fibroblasts cultured in a collagen matrix; human foreskin keratinocytes are seeded on top of the dermal equivalent and cultured under conditions that promote differentiation into a stratified squamous epithelium with a stratum comeum. The histology of the human skin equivalent is very similar to that of normal human skin except for the absence of non-keratinocyte elements such as blood vessels and hematopoietic cells, nerves, and hair follicles. Since intact human skin is highly resistant to GAS infection, we simulated minor trauma to the superficial epidermis by abrading the surface of the skin equivalent with a cytology brush to introduce breaks in the stratum corneum. GAS were inoculated onto the surface of abraded skin equivalent that had either been pre-treated with nothing, HA, or AL at 2 mg/ml for 1 hour and translocation through the tissue was monitored by culture of GAS from the basal surface of the skin equivalent at intervals. As depicted in FIG. 10, HA inhibited translocation GAS by 91% (solid bars). In comparison the AL control prevented only 14% of bacteria from translocating through the skin equivalent during the 4 hour infection period. […]

GAS [5] = experiment: GAS attachment to murine keratinocyte cell line PAM2.12 with exogenous hyaluronic acid; format: cell-based, Streptococcus pyogenes; conditions: control polysaccharide, concentration printed 1 /ml
Procedure: For bacterial adherence assays, keratinocytes were seeded at 10^5 cells per well in collagen-coated tissue culture wells (Nalge Nunc International, Naperville, Ill.), incubated for 3 days at 34° C. in 8% CO2, washed, and overlaid with medium containing 10^6 CFU of GAS per well. After incubation for 1 hour at 34° C. in 8% CO2 the keratinocyte monolayers were washed twice to remove nonadherent bacteria, then the number of cell-associated bacteria was determined by quantitative culture after releasing the keratinocytes with try spin and lysing them in sterile water, experiments testing the effects of exogenous hyaluronic acid on GAS adherence were performed using the mouse keratinocyte cell line, PAM 2.12 (Song, I. S. 2000, Exp. Dermatol. 9:42-52). Cells were seeded in collagen-coated tissue culture wells at 10^5 cells per well, cultured for 3 days at 37° C. in 5% CO2, then inoculated with 10^6 CFU of GAS per well in medium containing exogenous hyaluronic acid (from rooster comb, Sigma Chemicals, St. Louis, Mo.), no inhibitor, or a control polysaccharide, alginic acid, a high-molecular-weight polymer of mannuronic acid and guluronic acid (Protonal Durvillea Alginate, Pronova. Biopolymer, Inc., Portsmouth, N.H.). Cells were incubated for 45 minutes at 37° C. in 5% CO2, then processed for enumeration of adherent bacteria as described above. In experiments to test whether exogenous hyaluronic acid could promote dissociation of GAS attached to keratinocytes, GAS were allowed to attach to keratinocytes in the absence of inhibitor; after 45 minutes, the medium was removed and replaced with fresh medium containing hyaluronic acid, no inhibitor, or alginic acid. After 45 minutes of incubation, the number of adherent bacteria was enumerated as described above.
To investigate the specificity of the interaction between the GAS capsule and CD44 on epithelial cells, the ability of exogenous hyaluronic acid to compete with GAS for binding to murine keratinocytes was examined. Addition of exogenous hyaluronic acid to concentration 1 mg/ml[…], inhibited GAS attachment to the murine keratinocyte cell line PAM2.12 by >95% (P<0.03, FIG. 5). A concentration of 1 /ml alginic acid, another high molecular weight acidic polysaccharide, had no effect, supporting the hypothesis that adherence depends on a specific interaction between the GAS hyaluronic acid capsule and CD44 .
In addition to the 1 mg/ml concentration of hyaluronic acid, additional trials were performed as indicated above, with a range of concentrations of hyaluronic acid added to the cells. The concentrations tested included 4 mg/ml, 2 mg/ml, 1 mg/ml, 0.75 mg/ml, 0.5 mg/ml, 0.25 mg/ml and 0.1 mg/ml. The hyaluronic acid concentrations from 4 mg/ml to 0.25 mg/ml blocked GAS binding by greater than 70%. Hyaluronic acid concentrations from 4 mg/ml to 0.5 mg/ml blocked GAS binding by greater than 80% (FIG. 6).

Molecule	reduction of maximum number of translocated GAS ([1]; 250 μM, at 4 hours)	earliest detectable translocation of wild-type GAS ([1]; 250 μM, delayed from 30 min without inhibitor) [h]	redistribution (loss) of ZO-1 and E-cadherin from intercellular junctions (human keratinocytes [2])	formation of lamellipodia in response to GAS (human keratinocytes [3])	inhibition of translocation of GAS through skin equivalent (GAS [4]) [%]	blocking of translocating GAS ([1]; 1 hour after inoculation) [%]	blocking of translocating GAS ([1]; 2 hours after inoculation) [%]	effect on GAS attachment to PAM2.12 (GAS [5])
O=c1c(-c2ccc(O)cc2)coc2cc(O)cc(O)c12 [genistein]	approximately 80%	1	prevented	inhibit formation of lamellipodia	–	–	–	–
alginic acid	–	–	–	–	14	20	25	no effect
